Experimental data published in PubChem BioAssay (NCI).
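Briefly, cells in 96-well plates were exposed to five compound concentrations for 48 h, and endpoints were estimated by linear interpolation. Here, GI50 denotes the concentration required for 50% inhibition of growth. The concentration for full growth arrest is given as TGI.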

Key:
Assay in all cases: DTP human tumour cell line panel, 48 h
[1] = system: HCT-116 colon
[2] = system: HOP-92 NSCLC
[3] = system: IGROV1 ovarian
[4] = system: OVCAR-3 ovarian
[5] = system: OVCAR-4 ovarian
[6] = system: OVCAR-8 ovarian
[7] = system: SK-MEL-2 melanoma
[8] = system: UACC-257 melanoma
[9] = system: UO-31 renal

SMILES | TGI [1] [µM] | TGI [2] [µM] | TGI [3] [µM] | TGI [4] [µM] | TGI [5] [µM] | TGI [6] [µM] | TGI [7] [µM] | TGI [8] [µM] | TGI [9] [µM] | GI50 [2] [µM] | GI50 [3] [µM] | GI50 [4] [nM] | GI50 [5] [µM] | GI50 [6] [µM] | GI50 [7] [µM] | GI50 [8] [µM] | GI50 [1] [µM] | GI50 [9] [µM]
S=c1sc2c(n1-c1ccccc1)NC=NC2S (stereo not given) | > 100 | 71.1 | > 100 | > 100 | > 100 | > 100 | > 100 | > 100 | > 100 |  |  |  |  |  |  |  |  | 
COc1nc(NC2OC(COC(C)=O)C(OC(C)=O)C(OC(C)=O)C2OC(C)=O)c2c(OC(C)=O)cc(=O)oc2n1 (stereo not given) | > 100 | > 100 | > 100 | > 100 | > 100 | > 100 | > 100 | > 100 | > 100 |  |  |  |  |  |  |  |  | 
N#C/C(=C\c1cccc(Cl)c1Cl)c1ccccc1 | > 67.5 | > 82.3 | 55.2 | > 92.6 | > 85.6 | > 100 | > 100 | > 100 | > 91.2 |  |  |  |  |  |  |  |  | 
O=C(/C=C/c1ccc([N+](=O)[O-])cc1)c1ccc(NCc2nc3ccccc3[nH]2)cc1 |  | 21.8 | 18.1 | 11.8 | 27.8 | 12.9 | 29.7 | 13.8 | 16.3 |  |  |  |  |  |  |  |  | 
C=C(C)CCOC(c1ccccc1)(c1ccccc1)c1ccccc1 | 76.6 | > 100 | > 100 | > 100 | > 100 | > 100 |  | 80.5 | > 100 |  |  |  |  |  |  |  |  | 
O=c1ccc2ccccc2cc1[O-].O=c1ccc2ccccc2cc1[O-].[O]=[U+2]=[O] |  | 72.1 | 84.5 | 50.1 | 55.1 | 59.9 | 38.1 | 44.3 |  | 28.1 | 23.4 | 8280 | 14.7 | 8.83 | 11.7 | 6.19 |  | 
COC(=O)CC(c1ccccc1)C1(c2ccccc2)SCCS1 (stereo not given) | > 290 | 187 | > 290 | > 290 |  | > 290 | > 290 | > 290 |  |  |  |  |  |  |  |  |  | 
O=C1C=CC(=O)c2nc3c(cc21)CCC3 | 28.8 | 34.1 | 34 | 32 | 29.7 | 28.8 |  | 33.9 | > 100 |  |  |  |  |  |  |  |  | 
c1ccc(NCn2cnc3ccccc32)cc1 | > 100 |  | > 100 | > 100 | > 100 | > 100 | > 100 | > 100 | > 100 |  |  |  |  |  |  |  |  | 
CCOC(=O)C1=C(C(=O)OCC)C2c3ccccc3C=CN2C(C(=O)OCC)=C(SC)S1 (stereo not given) | > 100 |  | > 100 | > 100 |  | > 100 | > 100 | > 100 | > 100 |  |  |  |  |  |  |  |  | 
CN(C)CCn1c2c3ccccc3ccc2c2oc(=O)c3ccccc3c21 | 29.1 | 17.6 | 55.5 | 16.9 | 28.1 |  | 35 | 16.4 | 8.94 |  |  |  |  |  |  |  |  | 
Cc1cc2c(C)[nH]nc2c(C(=O)O)c1C | > 100 |  | > 100 | > 100 | > 100 | > 100 | > 100 | > 100 | > 100 |  |  |  |  |  |  |  |  | 
CC(=O)O/N=C(/C)c1ccccc1O | > 100 |  | > 100 | > 100 | > 100 | > 100 | > 100 | > 100 | > 100 |  |  |  |  |  |  |  |  | 
CC(=O)NNc1nc(C)c(C(=O)/C=C/c2ccc(NC(C)=O)cc2)s1 |  | > 100 | > 100 | > 100 |  | > 100 | > 100 | > 100 | > 100 |  |  |  |  |  |  |  |  | 
Cc1ccc(-n2c3nc(=O)[nH]c(=O)c-3cc3cc([N+](=O)[O-])ccc32)cc1 | 21 |  |  | 4.79 | 98.8 | > 100 | > 100 | 70.9 | 68.2 |  |  | 2180 | 24.1 | 38.6 | 44.2 | 26.7 | 5.26 | 23
C/C(CCn1[nH]c(=O)ccc1=O)=N\NC(=O)C(=O)NN |  |  | > 100 | > 100 | > 100 | > 100 | > 100 | > 100 | > 100 |  |  |  |  |  |  |  |  | 
CC(=O)OCCOCNC(=S)N/N=C(\C)c1cnccn1 | > 100 |  | > 100 | > 100 | > 100 | > 100 | > 100 | > 100 | > 100 |  |  |  |  |  |  |  |  | 
O=C(/C(=C/c1ccc([N+](=O)[O-])cc1)SCc1ccccc1)c1ccc(Cl)cc1 |  | 9.46 | 11.6 | 4.29 | 13.3 | 15.2 | 32.5 | 19.4 | 3.3 | 2.28 | 2.86 | 1910 | 3.24 | 3.98 | 15.3 | 6.36 |  | 1.5
Cc1ccc(/C=C/C(=O)c2cccc3ccccc23)cc1 | 24.6 |  |  | 31.7 | 28 | 29 | 32.6 | 33.7 | 39.7 |  |  |  |  |  |  |  |  | 
